Each block holds one molecule with its values, some of them ahead of it.
Columns and labels:
Type in all cases: cell-based
PPAR-γ = target: T1, PPAR-γ (Homo sapiens, UniProt P37231); test: PPAR-γ transactivation test (luciferase reporter, cotransfected HeLa cells); design: concentration or dose not given beside the values; conditions: HeLa cells cotransfected with receptor vector and PPRE-luciferase reporter, 24 hours; relative to Reference 2
T1 construct: expressed in transfected cells; host or cells: HeLa cells
T1 sequence (P37231 1-505): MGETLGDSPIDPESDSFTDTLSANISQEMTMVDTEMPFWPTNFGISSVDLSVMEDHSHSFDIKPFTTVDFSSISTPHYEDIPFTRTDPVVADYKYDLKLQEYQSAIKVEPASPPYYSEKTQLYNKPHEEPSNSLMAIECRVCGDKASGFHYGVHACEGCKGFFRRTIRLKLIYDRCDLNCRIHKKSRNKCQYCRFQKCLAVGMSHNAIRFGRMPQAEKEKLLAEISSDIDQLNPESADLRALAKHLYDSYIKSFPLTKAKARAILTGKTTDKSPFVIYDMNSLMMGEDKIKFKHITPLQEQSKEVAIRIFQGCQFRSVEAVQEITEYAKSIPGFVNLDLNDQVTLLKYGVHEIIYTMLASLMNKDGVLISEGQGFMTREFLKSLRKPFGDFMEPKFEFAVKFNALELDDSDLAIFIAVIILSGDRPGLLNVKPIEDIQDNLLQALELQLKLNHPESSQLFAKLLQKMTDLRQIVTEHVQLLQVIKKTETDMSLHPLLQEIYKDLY
Description: (§1) This activity is determined employing an enzyme (luciferase) which is a reporter of the activation due to the compound via one of the PPAR receptors.
(§2) The biological tests carried out correspond to those described above. […] Thus, the activating power via PPAR-α, PPAR-γ or PPAR-δ of molecules can be evaluated with a transactivation test in which HeLa cells were cotransfected with an expression vector encoding these receptors and a reporter plasmid comprising a PPRE response element cloned upstream of a portion of a promoter of the SV40 virus and of the luciferase gene. The cotransfected cells were treated for 24 hours with the molecules to be tested and the activity of the luciferase was determined by luminescence.

PPAR-α = target: T2, PPAR-α (Homo sapiens, UniProt Q07869); test: PPAR-α transactivation test (luciferase reporter, cotransfected HeLa cells); design: concentration or dose not given beside the values; conditions: HeLa cells cotransfected with receptor vector and PPRE-luciferase reporter, 24 hours; relative to Reference 1
T2 construct: expressed in transfected cells; host or cells: HeLa cells
T2 sequence (Q07869 1-468): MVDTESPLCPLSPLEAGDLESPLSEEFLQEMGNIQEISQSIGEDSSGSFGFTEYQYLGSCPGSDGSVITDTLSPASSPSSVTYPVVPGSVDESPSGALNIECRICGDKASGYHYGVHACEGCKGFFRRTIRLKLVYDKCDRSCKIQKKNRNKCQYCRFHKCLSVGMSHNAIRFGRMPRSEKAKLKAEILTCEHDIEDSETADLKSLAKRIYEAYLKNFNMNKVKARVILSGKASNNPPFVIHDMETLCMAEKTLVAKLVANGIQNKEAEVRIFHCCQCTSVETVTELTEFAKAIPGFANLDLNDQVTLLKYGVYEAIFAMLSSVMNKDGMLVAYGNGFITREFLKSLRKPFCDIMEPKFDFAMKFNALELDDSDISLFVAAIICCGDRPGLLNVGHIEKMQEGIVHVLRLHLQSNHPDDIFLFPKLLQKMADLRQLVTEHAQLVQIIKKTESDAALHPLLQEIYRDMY
Description: as §1, §2

PPAR-β = target: T3, PPAR-β (Homo sapiens, UniProt Q03181); test: PPAR-β transactivation test (luciferase reporter, cotransfected HeLa cells); design: % of activation, β: concentration or dose not given beside the values; conditions: 24 hours; for % of activation, β: HeLa cells cotransfected with receptor vector and PPRE-luciferase reporter, relative to Reference 2; for AC50: HeLa cells cotransfected, concentration giving 50% of the activity of the reference molecule
T3 construct: expressed in transfected cells; host or cells: HeLa cells
T3 sequence (Q03181 1-441): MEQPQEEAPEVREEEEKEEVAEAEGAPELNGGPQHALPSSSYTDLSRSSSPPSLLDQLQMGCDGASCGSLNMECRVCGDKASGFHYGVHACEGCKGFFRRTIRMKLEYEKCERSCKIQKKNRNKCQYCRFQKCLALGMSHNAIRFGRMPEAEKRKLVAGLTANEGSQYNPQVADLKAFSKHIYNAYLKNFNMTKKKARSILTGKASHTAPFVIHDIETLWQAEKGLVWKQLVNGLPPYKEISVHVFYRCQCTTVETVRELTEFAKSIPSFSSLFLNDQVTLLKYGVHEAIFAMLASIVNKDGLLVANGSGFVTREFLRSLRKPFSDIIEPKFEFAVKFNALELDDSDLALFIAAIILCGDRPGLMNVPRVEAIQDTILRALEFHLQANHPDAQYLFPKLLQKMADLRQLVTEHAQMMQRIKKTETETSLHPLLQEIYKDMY
Description: as §1, §2

% of activation, γ (PPAR-γ): 23% | % of activation, α (PPAR-α): 18% | % of activation, β (PPAR-β): 152% | AC50 (PPAR-β): 700 nM
SMILES: CC1(C)CCC(C)(C)c2cc(Oc3ccc4cc(C(=O)O)ccc4c3)ccc21 [Compound 1, 6-(5,5,8,8-tetramethyl-5,6,7,8-tetrahydronaphth-2-yloxy)naphthalene-2-carboxylic acid]

% of activation, γ (PPAR-γ): 69% | % of activation, α (PPAR-α): 25% | % of activation, β (PPAR-β): 328% | AC50 (PPAR-β): 7000 nM
SMILES: CC1(C)CCC(C)(C)c2cc(Nc3ccc4cc(C(=O)O)ccc4c3)ccc21 [Compound 5, 6-(5,5,8,8-tetramethyl-5,6,7,8-tetrahydronaphth-2-ylamino)naphthalene-2-carboxylic acid]

% of activation, γ (PPAR-γ): 40% | % of activation, α (PPAR-α): 24% | % of activation, β (PPAR-β): 172% | AC50 (PPAR-β): 200 nM
SMILES: CC1(C)CCC(C)(C)c2cc(Sc3ccc4cc(C(=O)O)ccc4c3)ccc21 [Compound 3, 6-(5,5,8,8-tetramethyl-5,6,7,8-tetrahydronaphth-2-ylsulfanyl)naphthalene-2-carboxylic acid]

% of activation, γ (PPAR-γ): 0% | % of activation, α (PPAR-α): 12% | % of activation, β (PPAR-β): 56%
SMILES: CC(=CC(=O)O)c1ccc(Oc2ccc3c(c2)C(C)(C)CCC3(C)C)cc1 [Compound 4, 3-[4-(5,5,8,8-tetramethyl-5,6,7,8-tetrahydronaphth-2-yloxy)phenyl]but-2-enoic acid]

More lines, now with the values behind:

SMILES: CC1(C)CCC(C)(C)c2cc(Oc3ccc(C=CC(=O)O)cc3)ccc21 [Compound 2, 3-[4-(5,5,8,8-tetramethyl-5,6,7,8-tetrahydronaphth-2-yloxy)phenyl]acrylic acid]
% of activation, γ (PPAR-γ): 18% | % of activation, α (PPAR-α): 12% | % of activation, β (PPAR-β): 204% | AC50 (PPAR-β): 900 nM

SMILES: CC1=NC(=Cc2ccc(Oc3ccc4c(c3)C(C)(C)CCC4(C)C)cc2)C(=O)O1 [Comparative Example 1, 2-methyl-4-[4-(5,5,8,8,-tetramethyl-5,6,7,8-tetrahydronaphth-2-yloxy)benzylidine]-4H-oxazol-5-one, reference compound]
% of activation, γ (PPAR-γ): 0% | % of activation, α (PPAR-α): 5% | % of activation, β (PPAR-β): 7%

SMILES: CC(=O)NC(=Cc1ccc(Oc2ccc3c(c2)C(C)(C)CCC3(C)C)cc1)C(=O)O [Comparative Example 2, 2-acetylamino-3-[4-(5,5,8,8-tetramethyl-5,6,7,8-tetrahydronaphth-2-yloxy)phenyl]-acrylic acid, reference compound]
% of activation, γ (PPAR-γ): 4% | % of activation, α (PPAR-α): 7% | % of activation, β (PPAR-β): 0%

SMILES: Cc1cccc(Nc2cc(Cl)nc(SCC(=O)O)n2)c1C [Reference 1, [4-chloro-6-(2,3-dimethyl-phenylamino)pyrimidin-2-ylsulfanyl]acetic acid, reference compound]
% of activation, α (PPAR-α): 100%

Reference: patent US20020049249A1, “PPAR receptor activator compounds for treating cutaneous disorders/afflictions” (priority 1999, published 2002)
